Where a name gives a salt, the structure may show the parent alone.
What was measured:
HCT116 [1] = test: AC50 cell viability (CellTiter-Glo); higher = less potent; settings: 48 h
HCT116 [2] = test: efficacy (fitted maximal change in viability relative to DMSO control); higher = less cytotoxic (negative = loss of viability); settings: 48 h
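Wherever AC50 cell viability (CellTiter-Glo) is given: HCT116 colorectal carcinoma cells screened at five concentrations per compound, luminescent viability scaled between DMSO wells and empty wells on each plate, curves fitted per compound.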
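Wherever efficacy (fitted maximal change in viability relative to DMSO control) is given: Luminescence-based viability readout, five doses per compound, normalized against on-plate DMSO and empty-well controls, followed by dose-response curve fitting for every drug.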

Structure (SMILES) | AC50 cell viability (HCT116 [1]) [µM] | efficacy (HCT116 [2]) [%]
CC(=O)[C@]1(O)Cc2c(O)c3c(c(O)c2[C@@H](O[C@H]2C[C@H](N)[C@H](O)[C@H](C)O2)C1)C(=O)c1ccccc1C3=O [Idarubicin hydrochloride] | 0.661 | -83
CCCCCCOC(=O)/N=C(/N)c1ccc(NCc2nc3cc(C(=O)N(CCC(=O)OCC)c4ccccn4)ccc3n2C)cc1 [BIBR-1048] | 18.6 | -59.4
Cn1cc(-c2ccc3ncc(Cc4ccc5ncccc5c4)n3n2)cn1 [NVP-BVU-972] | 18.6 | -40.8
CCN1/C(=C/C(C)=O)Sc2ccc(OC)cc21 [TG-003] | 14.8 | -41.4
CC(C)c1ccc(Cn2ccc3c4c(N)nc(NC5CC5)nc4ccc32)cc1 | 0.332 | -102
NC(=O)c1c(OCc2c(F)cc(Br)cc2F)nsc1NC(=O)NCCCCN1CCCC1 [OSI-632] | 23.5 | -100
Cc1cccc(-c2n[nH]cc2-c2ccc(F)c(-c3cnn(CCO)c3)c2)n1 | 26.3 | -71.1
CC[C@]1(O)C[C@H]2CN(CCC3=C([NH]C4=C3C=CC=C4)[C@@](C2)(C(=O)OC)C5=CC6=C(C=C5OC)N(C=O)[C@H]7[C@](O)([C@H](OC(C)=O)[C@]8(CC)\C=C/CN9CC[C@]67[C@H]89)C(=O)OC)C1 [Vincristine sulfate] | 0.372 | -60.7
Cc1[nH]c(/C=C2\C(=O)Nc3ccc(F)cc32)c(C)c1C(=O)NCCN1CCCC1 [Toceranib] | 8.11 | -95.7
CCc1nc(C(N)=O)c(Nc2ccc(N3CCC(N4CCN(C)CC4)CC3)c(OC)c2)nc1NC1CCOCC1 [Gilteritinib] | 1.66 | -65.1
COc1cc2ncnc(Nc3cccc(Br)c3)c2cc1OC | 20.9 | -53
c1cncc(CN2CCC(n3ncc4c(N5CCOCC5)nc(-c5ccc6[nH]ccc6c5)nc43)CC2)c1 [WAY-600] | 5.9 | -78.7
CN(c1ncccc1CNc1nc(Nc2ccc3c(c2)CC(=O)N3)ncc1C(F)(F)F)[S+](C)(=O)[O-] | 2.63 | -62.3
CONC(=O)Nc1ccc(-c2sc3c(c2CN(C)C)c(=O)n(-c2ccc(OC)nn2)c(=O)n3Cc2c(F)cccc2F)cc1 [Relugolix] | 23.5 | -67.3
Cc1cc2c(C(C)C)c(O)c(O)c(C=O)c2c(O)c1-c1c(C)cc2c(C(C)C)c(O)c(O)c(C=O)c2c1O [(-)-Gossypol] | 16.6 | -115
C=CC(=O)Nc1cc2c(Nc3ccc(F)c(Cl)c3)ncnc2cc1C#CC(C)(C)N1CCN(C)CC1 [AV-412] | 9.34 | -104
Cc1ccc([N+](=O)[O-])cc1[S+](=O)([O-])N(C)/N=C/c1cnc2ccc(Br)cn12 [PIK-75] | 0.0525 | -60.8
CCC(=O)N1CCN(CC1)C2=C(C=C(C=C2)N3C(=O)\C=C/C4=C3C5=CC(=CC=C5N=C4)C6=CN=C7C=CC=CC7=C6)C(F)(F)F [Torin-1] | 0.0723 | -60
CC1=C(C)C\2=C(S1)[N]3C(=NN=C3[C@H](CC(=O)NC4=CC=C(OCCOCCOCCOCCNC5=CC=CC6=C5C(=O)N(C7CCC(=O)NC7=O)C6=O)C=C4)\N=C2C8=CC=C(Cl)C=C8)C (stereo not given in full) [ARV-825] | 0.263 | -73.3
NCCOc1cc(C(=O)Nc2cc(OCCN)c3ccccc3n2)nc(C(=O)Nc2cc(OCCN)c3ccccc3n2)c1 [Pyridostatin] | 18.6 | -78.9
CN(C(=O)CNC(=O)/C=C/c1cccc(Cl)c1)C1CC[S+](=O)([O-])CC1 (stereo not given) [ML264] | 0.742 | -92.4
Nc1cc(C(F)(F)F)c(-c2nc(N3CCOCC3)nc(N3CCOCC3)n2)cn1 [Bimiralisib] | 1.86 | -60.2
O=[N+]([O-])c1ccc(O)c2ncccc12 [Nitroxoline] | 10.5 | -96.2
CC1(C)C(=O)N(c2ccc(C#N)c(C(F)(F)F)c2)C(=S)N1Cc1ccc(-c2c[nH]nn2)cc1 [BG-15a] | 20.9 | -68.8
Cc1c(C(=O)NN2CCCCC2)nn(-c2ccc(Cl)cc2Cl)c1-c1ccc(Cl)cc1 [Rimonabant] | 23.5 | -93.4
O=C1\C=C(OC2=C(C=CC=C12)C3=CC=CC4=C3SC5=C4C=CC=C5)\N6CCOCC6 [NU-7441] | 3.72 | -76.8
CN\1N(C(=O)\C(=C1C)C(=O)NC2=CC=C(OC3=CC=NC4=C3C(=C[NH]4)C5=CC=CC=C5)C(=C2)F)C6=CC=C(F)C=C6 [NPS-1034] | 14.8 | -59.9
CCCCNc1ncc2c(-c3ccc(F)cc3)nn(C[C@H]3CC[C@H](N)CC3)c2n1 [UNC-569] | 7.23 | -83.5

Structure (SMILES) | AC50 cell viability (HCT116 [1]) [µM] | efficacy (HCT116 [2]) [%]
Cc1cccc(Nc2nc(-c3ccncc3)cs2)c1 | 18.6 | -69.9
Cc1c(N)nc([C@H](CC(N)=O)NC[C@@H](N)C(N)=O)nc1C(=O)N[C@H](C(=O)N[C@@H](C)[C@H](O)[C@@H](C)C(=O)N[C@@H](C(=O)NCCc1nc(-c2nc(C(=O)NCCC[S+](C)C)cs2)cs1)[C@@H](C)O)C(O[C@H]1O[C@H](CO)[C@H](O)[C@@H](O)[C@H]1O[C@H]1O[C@H](CO)[C@@H](O)[C@H](OC(N)=O)[C@@H]1O)c1c[nH]cn1 (stereo not given in full) [Bleomycin sulfate] | 1.62 | -34.2
CN(CCO)C1CCN(c2ccc(Nc3ncc4c5ccnc(F)c5n(C5CCCC5)c4n3)nc2)CC1 [AM-5992] | 1.02 | -50
CN(C)C1=C(Br)C=C(C=C1)C\2NC3=C(\C4=C2C(=O)CC(C)(C)C4)C5=CC=CC=C5C=C3 (stereo not given) [GLS-968] | 9.34 | -31.2
CCNC(=O)C[C@H]1/N=C(/C2=CC=C(Cl)C=C2)C3=CC(=CC=C3[N]4C(=NN=C14)C)OC | 14.8 | -37.7
CONC(=O)Nc1ccc(-c2sc3c(c2CN(C)Cc2ccccc2)c(=O)n(-c2ccccc2)c(=O)n3Cc2c(F)cccc2F)cc1 [Sufugolix] | 16.6 | -35.8
Cc1ccc([S+](=O)([O-])N[C@@H](Cc2ccccc2)C(=O)CCl)cc1 [TPCK] | 18.6 | -77.8
C=CC(=O)N1CC/C(=C\c2ccc(F)c([N+](=O)[O-])c2)C(=O)/C(=C/c2ccc(F)c([N+](=O)[O-])c2)C1 [VLX-1570] | 0.295 | -81.4
COc1cc(Nc2ncc(F)c(Nc3ccc4c(n3)N(COP(=O)(O)O)C(=O)C(C)(C)O4)n2)cc(OC)c1OC [Fostamatinib] | 18.6 | -70.2
CC(=O)[C@]1(N)Cc2c(O)c3c(c(O)c2[C@@H](O[C@H]2C[C@H](O)[C@H](O)CO2)C1)C(=O)c1ccccc1C3=O [Amrubicin] | 6.61 | -75.8
NC1(C(=O)N[C@@H](CCO)c2ccc(Cl)cc2)CCN(c2ncnc3[nH]ccc23)CC1 [AZD-5363] | 11.8 | -83.1
FC(F)(F)c1ccc(C/N=c2\ccc(Cc3c[nH]c4ncccc34)c[nH]2)cc1 [PLX-647] | 13.2 | -76.1
Clc1ccc(COC(Cn2ccnc2)c2ccc(Cl)cc2Cl)c(Cl)c1 (stereo not given) [Miconazole nitrate] | 20.9 | -97.9
O=C1S/C(=C\c2ccc(OCc3cccc(B(O)O)c3)cc2)C(=O)N1Cc1ccc(F)cc1 [HA-130] | 18.6 | -41.3
CC1=CC=CC=C1CN2C(=O)C/3=C(/CCN(CC4=CC=CC=C4)C3)N\5CC\N=C25 [TIC-10] | 2.95 | -62.1
COc1cc2c(NC3CCN(CC4CCCCC4)CC3)nc(N3CCCN(C(C)C)CC3)nc2cc1OCCCN1CCCCC1 [UNC-0631] | 7.42 | -106
CCn1c(-c2nonc2N)nc2cncc(CNC3CCNCC3)c21 | 10.5 | -43.9
NC(CO)(CO)CCc1ccc(Sc2cccc(OCc3ccccc3)c2)cc1Cl [KRP-203] | 7.42 | -92.6
O=C(Nc1ccc2[nH]nc(-c3ccncc3)c2c1)[C@@H]1CCN(CC(=O)N2CCN(c3ccc(-c4ncccn4)cc3)CC2)C1 | 0.295 | -64.3
CCN(C)[S+](=O)([O-])Nc1ccc(F)c(C(=O)c2c[nH]c3ncc(-c4cnc(C5CC5)nc4)cc23)c1F [PLX-7904] | 16.6 | -69.9
O=C(Nc1cccnn1)N1CCC(=Cc2cccc(Oc3ccc(C(F)(F)F)cn3)c2)CC1 | 14.8 | -72.6
CCc1c(O)cc(O)c(C(=O)c2ccc(OCCN3CCOCC3)c(OC)c2)c1CC(=O)N(CCOC)CCOC [KW-2478] | 0.833 | -53.2
CCOc1cc2ncc(C#N)c(Nc3ccc(OCc4ccccn4)c(Cl)c3)c2cc1NC(=O)/C=C/CN(C)C [Neratinib] | 2.35 | -72.5
NC1(CCC1)C2=CC=C(C=C2)C3=C(C=C/4C(=N3)\C=C/N5C(=O)N\N=C45)C6=CC=CC=C6 [MK-2206] | 16.6 | -122
N#C/C(=C(/N)Sc1ccc(N)cc1)c1ccccc1C(F)(F)F [SL-327] | 13.2 | -80.4
N#Cc1cc2cc(CN3CCC(Nc4ncnc5sc(CC(F)(F)F)cc45)CC3)c(O)cc2n1Cc1cn[nH]c1 [MI-538] | 13.2 | -111
CC(=O)N(O)CCCCCNC(=O)CCC(=O)N(O)CCCCCNC(=O)CCC(=O)N(O)CCCCCN [Deferoxamine mesylate] | 9.34 | -95.9

From the supplement of paper PMC10290057
